Data from patent US20100298348A1, “Method of Decreasing Ubiquitylated Protein Levels” (priority 2009, published 2010).

Tests used:
[1] = tested on: acetylcholine (ACh) and dopamine; experiment: Acetylcholine and dopamine release and extracellular concentrations
[2] = Chronic and reproductive toxicity studies; assay type: in vivo
SAMP8 mouse = settings: cited from earlier work
proteasome = experiment: Western blot of proteasome subunits in brain extracts; assay type: in vivo, mouse; settings: 12-month-old 3xTg-AD mice, 5 mg/kg/day, 2 months
Description: Brain extracts from 12-month-old 3xTg-AD mice (described in Example 15) that had been treated with ST101 at 5/mg/kg/day in drinking water over 2 months were analyzed in Western blots using an anti-proteasome alpha-subunit antibody.

Aβ1-40 = experiment: Aβ in cynomolgus monkey brain after six-month chronic toxicity study; assay type: in vivo; settings: juvenile cynomolgus monkeys, 10 mg/kg/day by naso-gastric tube, 6 months
Description: Brain samples from cynomolgus monkeys were obtained at the conclusion of a six-month chronic toxicity study. The cynomolgus monkeys used in this study were juveniles of less than 4 years of age. ST101 was administered daily for 6 months by naso-gastric tube at 10 mg/kg/day (n=8 per group). Data was generated from 8 treated and 8 control animals. Levels of Aβ1-40 are shown in FIG. 9, which is a bar graph that depicts the effect of ST 101 on Aβ in brain tissue from cynomolgus monkeys. FIG. 9 depicts the amount of levels of Aβ1-40 in monkeys treated with ST 101, relative to control monkeys.

ubiquitylated proteins = experiment: Anti-ubiquitin Western blot of 3xTg-AD mouse brain; assay type: in vivo
Description: Brain extracts from 12-month-old 3xTg-AD mice that had been treated with ST101 (S) at 5/mg/kg/day in drinking water over 2 months were analyzed in Western blots using an anti-ubiquitin antibody (Dako no. Z0448). […] The control (C) samples show a typical high molecular weight “smear” representing a mixture of ubiquitylated proteins.

sAPP-beta = experiment: Western blot of sAPP-beta in 3xTg-AD mouse brain; assay type: in vivo; settings: 3xTg-AD mice ~14.5 months old, 5 mg/kg/day in drinking water, 2 months as printed
Description: FIG. 10B describes a reduction of fragment C99. C99 is created by BACE cleavage which leads to release of soluble APP, specifically sAPP-beta. […] The Western blot was obtained using an sAPP-beta specific antibody in brain extracts from ST101 treated 3×TG-AD mice (S) versus control mice (C). Animals were approximately 14.5 months old at sacrifice after 2 months of treatment with ST101 at 5 mg/kg/day in drinking water.

Aβ42 = experiment: Sandwich ELISA of Aβ42 in cynomolgus monkey hippocampal lysates, 9-month study; assay type: in vivo; settings: male cynomolgus monkeys, 9 months oral
Description: Male cynomolgus monkeys were treated for 9 months with 0, 10, 30 or 100 mg/kg/day ST101 with once daily oral drug administration. Hippocampal brain samples were analyzed in Western blots and ELISAs for APP fragments and Aβ. […] Reductions in a ˜55-kDa fragment were also seen with treatment in these groups. Black outlines depict image level enhancement in Adobe Photoshop CS4, to better visualize weak signals. […] However, long exposures reveal the presence of the 17-kDa APP fragment only in treated monkeys (antibody CT20, Calbiochem). This fragment was not detected in either the 30 or 10 mg/kg/day ST101 groups. Error bars indicate SEM (standard error of the mean) and * indicates statistical significance versus control (p<0.05). (S: ST101-treated animals, versus C: control animals).

APP = experiment: Western blot of APP and C-terminal fragments in 3xTg-AD mouse brain; assay type: in vivo; settings: 5 mg/kg/day
Description: To attempt to determine at what part in the Aβ processing/release pathway ST101 may be active, a series of Western blot analyses of brain extracts from the same mice were conducted. These Westerns blots examined intact APP as well as products of its post-translational processing and subsequent degradation.
FIG. 4 is a Western blot that depicts APP C-terminal fragments detected by antibody CT20 in the brains of ST101-treated (S) 3xTg-AD mice, relative to untreated (C) 3xTg mice-AD.
FIG. 5 is a Western blot that depicts APP and degradation fragments detected by antibody CT20 in the brains of ST101-treated (S) 3xTg-AD mice, relative to untreated (C) 3xTg-AD mice. “CT20” stands for full length APP species, and “Actin” stands for anti-beta-actin antibody as a protein loading control.
FIGS. 10A and 10B are Western blots that depict APP carboxy-terminal fragments detected by antibody CT20 in the brains of ST101-treated (T in FIG. 10A, S in FIG. 10B) 3xTg-AD mice, relative to untreated (C) 3xTg-AD mice. FIG. 10B is from a separate experiment that used the same brain extract used in the experiment for FIG. 10A. Animals were approximately 14.5 months old at sacrifice after 2.5 months of treatment with ST101 at 5 mg/kg/day in drinking water. * denotes a control animal with low levels of CTFs.
FIGS. 10C and 10D are Western blots that depict APP carboxy-terminal fragments detected by an APP C-terminal antibody (Eptitomics #: 15654-1) in the brains of ST101-treated (S) 3xTg-AD mice, relative to untreated (C) 3xTg-AD mice. FIG. 10D is a lighter exposure of the Western blot in FIG. 10C. Animals were approximately 14.5 months old at sacrifice after 2.5 months of treatment with ST101 at 5 mg/kg/day in drinking water.
Brain extracts from 12-month-old 3xTg-AD mice that had been treated with ST101 (S) at 5/mg/kg/day in drinking water over 2 months were analyzed in Western blots using a C-terminal APP antibody (CT-20 Calbiochem).

[3] = 3xTg-AD mice ~12 months old, 2 months, antibody CT20

O=C1N=C2C=CC=CN2C12Cc1ccccc1C2 [ST101, spiro(imidazo[1,2-a]pyridin-2(3H)-one-3,2′-indan)]
nicotine-stimulated release of acetylcholine (ACh) [1]: potentiates
extracellular ACh concentrations ([1]; cerebral cortex): increases
extracellular concentration of ACh ([1]; hippocampus): increases
extracellular concentration of dopamine ([1]; hippocampus): increases
toxicity in chronic toxicity studies ([2]; high doses): very little toxicity
toxicity in reproductive toxicity studies ([2]; monkey, in vivo): very little toxicity
safety in rodent and monkey toxicity studies ([2]; up to 6 months, doses up to approximately 100-fold higher than in 3xTg-AD mice): proven safe
accumulation of Aβ-like deposits in brain tissue (SAMP8 mouse): decreased
learning and memory functions (SAMP8 mouse): improvement
concentration of proteasome alpha subunits (proteasome): No difference is apparent
high molecular weight bands reactive with proteasome alpha-subunit antibody (proteasome): clear decrease
proteasome subunit beta 2i (proteasome): did not reveal changes
proteasome subunit beta 5i (proteasome): did not reveal changes
Aβ1-40 levels in brain (Aβ1-40): reduction of Aβ1-40 in animals treated with ST101 that did not reach statistical significance
ubiquitylated proteins (ubiquitylated proteins; 3xTg-AD mice 12 months old, 5 mg/kg/day in drinking water, 2 months): profound reduction
monomeric ubiquitin concentrations (ubiquitylated proteins; 3xTg-AD mice 12 months old, 5 mg/kg/day, 2 months, data not shown): largely unaffected
ubiquitylated proteins (ubiquitylated proteins; 3xTg-AD mice 14.5 months old, 5 mg/kg/day, ~2.5 months): significant reduction
sAPP-beta (sAPP-beta): concomitant reduction
Aβ42 in hippocampal lysates (Aβ42; 10 mg/kg/day): significant increases
Aβ42 in hippocampal lysates (Aβ42; 30 mg/kg/day): significant decreases
Aβ42 in hippocampal lysates (Aβ42; 100 mg/kg/day): significant decreases
AICD fragment (APP intracellular domain) (APP; 3xTg-AD mice 12 months old, 2 months, antibody CT-20): visible in brain extracts from ST101 treated mice (S) but not in control mice (C)
C83 C-terminal APP fragment (APP; [3]): substantial decrease
C99 C-terminal APP fragment (APP; [3]): substantial decrease
full-length APP species, band shift (APP; [3]): slightly lowered molecular weight
major APP degradation intermediate (~50 kDa) (APP; [3]): disappearance or significant reduction
novel C-terminal APP fragment of about 17 kDa (APP; [3]): appearance
17 kDa APP fragment (APP; 3xTg-AD mice ~14.5 months old, 2.5 months): lack of detection
C99 fragment (APP; 3xTg-AD mice ~14.5 months old, 2.5 months, Epitomics C-terminal APP antibody): reduction
APP CTFs (APP; 3xTg-AD mice ~14.5 months old, 2.5 months, antibody CT20): significant effect of reduction
C83 fragment (APP; 3xTg-AD mice ~14.5 months old, 2.5 months, compared with 12-month old mice): not reduced to the same degree
